This series is described as follows: gradient 5% acetonitrile 3 min, to 50% in 2 min, to 85% in 15 min, held 3 min, 100 µL/min. As to conditions: column: Zorbax Extend-C18 2.1 x 50 mm; eluents: water / acetonitrile, 0.1% formic acid. The procedure, abridged:
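Standards, all pure, were combined into mixtures of ~100 molecules and run at 100 μL/min on a Zorbax Extend-C18 column (2.1 × 50 mm, 1.8 μm) with water and acetonitrile, each containing 0.1% formic acid. A coupled quadrupole time-of-flight mass spectrometer operated in positive and negative ionization mode. Retention time values come from computationally picked adduct peaks, each inspected manually.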
For the compound `O=C(Cn1cnc2nc(N3CCCC(C(=O)NC4CC4)C3)sc2c1=O)Nc1ccccc1Cl` (stereo not given), the RP-LC retention time is 686 s. Then `CCN1C(=O)COc2ccc(-c3csc(NC(=O)c4ccc(OC)c(OC)c4)n3)cc21`, with 943 s.

Regarding `CCn1cnc2ccc(-c3noc(-c4ccc(OC)cc4C)n3)cc21`, the RP-LC retention time came out at 741 s. Then `O=C(NCc1cccnc1)C1CCN(S(=O)(=O)c2ccc(-c3noc(C4CC4)n3)cc2)CC1`, with 659 s. Take `CCSc1ccccc1C(=O)N1CCN(CCn2cccn2)CC1`: the RP-LC retention time turned out to be 568 s. Compound `O=C(Nc1ccccc1C(F)(F)F)c1cnc(-c2ccccc2)nc1-c1ccncc1` showed an RP-LC retention time of 915 s.

`CCOc1cc2c(cc1OCC)C(c1ccc(OC)c(OC)c1OC)CC(=O)N2` (stereo not given) had an RP-LC retention time of 836 s. Then `COCCc1noc(C2CN(C(=O)C3(c4ccc(OC)cc4)CC3)C2)n1`, with 738 s; and `O=C(Nc1cnc(N2CCCC2)nc1)c1ccccc1C(F)(F)F`, with 740 s; and `CCc1ccccc1NC(=O)C1(C)Oc2cccnc2N(C)C1=O` (stereo not given), with 814 s. Then `O=C(NCC1CCCO1)c1ccc(CN2CCN(Cc3ccccc3)C(=O)C2=O)cc1` (stereo not given), with 669 s; and `CC(C)c1ccc(C(=O)Nc2cc(-c3ccccn3)no2)cc1`, with 960 s. For `O=C(Cc1nc(-c2ccccc2)n[nH]1)Nc1ccc(F)c(F)c1` the value was 757 s.

Consider `COCCC(=O)Nc1ccc2c(c1)CCC(=O)N2C`, for which the RP-LC retention time was determined as 609 s.

As to `CC(=O)Nc1ccc2c(c1)CN(C(=O)c1ccccc1Cl)C(C(=O)N1CCCC1)C2` (stereo not given), the RP-LC retention time amounted to 657 s. Take `Cc1cccc(S(=O)(=O)N2CC3CN(C(=O)c4ccco4)CC(C2)O3)c1`: the RP-LC retention time was determined as 933 s.

In turn, `CCNC(=O)N1CCc2nc(-c3ccc(F)cc3)ncc2C1` showed an RP-LC retention time of 752 s. For `Cn1c(C(=O)NCC2CCCO2)cc2c(=O)oc3ccccc3c21` (stereo not given) the value was 713 s; for `CCc1noc(NC(C)=O)c1-c1ccc(C)c(S(=O)(=O)Nc2cccc(F)c2)c1`, 822 s; for `COc1ccc(NC(=O)N2CCCC2c2nc(-c3ccccc3OC)no2)cc1` (stereo not given), 826 s. For `CC(C)N1CCN(C(=O)c2sc3ncccc3c2-n2cccc2)CC1` the value was 597 s; for `O=C(N[C@@H]1CN(c2ncccn2)C[C@H]1CO)C1CC=CC1`, 567 s; for `O=C(Cn1nc2nc(N3CCCC3)ccn2c1=O)N1CCN(c2ccc(F)cc2)CC1`, 661 s. For `CCC(CO)Nc1ncc([N+](=O)[O-])c(N)n1` (stereo not given) the value was 570 s; for `CN1CCN(CCCNC(=O)c2ccc(CS(=O)c3cccc(Cl)c3)o2)CC1` (stereo not given), 527 s. On to `COc1cc(C(=O)Nc2sc3c(c2C(N)=O)CCC(C)C3)cc(OC)c1OC` (stereo not given), for which the RP-LC retention time was found to be 1010 s. For `CS(=O)(=O)c1cccc(C(=O)Nc2nnc(-c3ccno3)o2)c1`, the RP-LC retention time turned out to be 603 s. Then `COc1ccc(OC)c(-c2ccc(=O)n(CCNC(=O)C(C)Oc3ccccc3F)n2)c1` (stereo not given), with 754 s; and `CCCNC(=O)c1n[nH]c2c1CCCCCC2`, with 776 s; and `Cc1ccc(CNC(=O)C2CCCN(c3cnc4nccnc4c3)C2)cc1C` (stereo not given), with 722 s.

For the compound `O=C(NC1CCCCCC1)c1csc(-c2ccc(N3CCCC3)nc2)n1`, the RP-LC retention time stood at 774 s. For `CC#C[C@@H](CC(=O)O)c1ccc(OCc2ccc(CN3CCC4(C=Cc5ccccc54)CC3)s2)cc1` the value was 915 s. Consider `O=C(NCCS(=O)(=O)N1CCN(c2ncccn2)CC1)c1cccs1`, for which the RP-LC retention time was determined as 663 s. For `CN(C)C(=O)C1CCN(S(=O)(=O)Cc2ccc(Cl)cc2)CC1` the value was 746 s; for `COc1cc([C@@H]2c3cc4c(cc3[C@H](O)C3COC(=O)[C@@H]32)OCO4)cc(OC)c1OC` (stereo not given in full), 811 s; for `COc1cccc(-c2[nH]ncc2CNS(=O)(=O)c2cc(OC)ccc2OC)c1`, 756 s.

As for `Cc1ccc(S(=O)(=O)N2CCC3(CC2)NCCN=C3NCc2cc(F)cc(F)c2)cc1C`, the RP-LC retention time is 798 s.

For the compound `CC(=O)N1CCc2cc(N3CC(C(=O)NCc4cc(C)ccc4C)CC3=O)ccc21` (stereo not given), the RP-LC retention time was found to be 742 s. Then `CCOc1cccc2cc(C(=O)Nc3ccccc3S(C)(=O)=O)oc12`, with 931 s; and `Cc1nc2cccnc2n1CC1CCCN(S(=O)(=O)c2ccc(C(C)C)cc2)C1` (stereo not given), with 817 s. Take `Cc1cc(C)cc(Nc2c(-c3ccc(N4CCOCC4)cc3)nc3cnccn23)c1`: the RP-LC retention time was determined as 895 s. On to `CCCn1cc(S(=O)(=O)NCc2cccc(C)c2)c2cccnc21`, for which the RP-LC retention time stood at 943 s.

`O=C(Nc1ccc(F)cc1)C1CCCN(c2nc3ccccc3nc2C(F)(F)F)C1` (stereo not given): the RP-LC retention time stood at 1190 s.

The compound `CCOc1ccc(-c2ccc(=O)n(Cc3nc(-c4ccc(C)cc4)no3)n2)cc1` returned an RP-LC retention time of 1150 s. In the case of `COc1ccc(NC(=O)C2CCCN(c3ncnc4c3oc3ccccc34)C2)cc1` (stereo not given), the RP-LC retention time turned out to be 747 s. In turn, `O=C(NCC1CCCO1)C1CCN(c2cnn(Cc3ccccc3)c(=O)c2)CC1` (stereo not given) came in with an RP-LC retention time of 667 s. For `O=C(c1nnn(Cc2ccc(Cl)cc2)c1-n1cccc1)N1CCSCC1`, the RP-LC retention time came to 981 s. Then `CC(=O)Nc1ccc(S(=O)(=O)N2CC=C(c3cn(C(C)C)c4ncccc34)CC2)cc1`, with 854 s; and `CCCn1cc(CCNC(=O)Nc2ccccc2Cl)c2cccnc21`, with 812 s; and `O=C(NC1CC1)C1CCCN(c2ncnc3c2oc2ccccc23)C1` (stereo not given), with 632 s. Then `Cc1n[nH]c(C)c1S(=O)(=O)N1CCOCC1`, with 582 s; and `Cc1ccc(CNS(=O)(=O)c2ccc3c(c2)C(=O)N(C)c2ncccc2O3)cc1`, with 932 s. For `O=C(NCc1ccccc1C(F)(F)F)c1cn2c(n1)CCCC2` the value was 640 s; for `Cc1ccccc1-c1noc(C2CCCN2S(=O)(=O)c2ccc(Br)s2)n1` (stereo not given), 1230 s; for `CCC(C)C1Nc2ccc(C(=O)NCCCN3CCOCC3)cc2NC1=O` (stereo not given), 584 s. `COc1ccc(CNC(=O)C2CCN(C(=O)C3Sc4ccccc4NC3=O)CC2)cc1` (stereo not given) registered an RP-LC retention time of 731 s. For `Cc1cccc(Nc2nc(C(=O)NCc3ccc(C)o3)nc3ccccc23)c1` the value was 856 s. With `CN1C(=O)C(C)(C(=O)NC2CCCCC2)Oc2cccnc21` (stereo not given), the RP-LC retention time came to 784 s. For `CC(C)n1ccc(C(=O)Nc2nnc(-c3cc(Cl)sc3Cl)o2)n1` the value was 858 s; for `CCc1nc2cc(N3CCC(C(=O)NCCN4CCOCC4)CC3)cnc2nc1CC`, 581 s; for `CNC(=O)c1cc(NC(=O)C2CCC2)cc2nc(C)ccc12`, 558 s. For `CCOC(=O)c1ccc(Nc2c(CC)c(C)nc3nc(-c4ccccc4)nn23)cc1` the value was 990 s; for `O=C(CN1CCC2(CC1)N=C(c1ccc(Br)cc1)C(=O)N2)Nc1ccc(F)cc1`, 700 s.

Regarding `CCOC(=O)c1[nH]c(C)c(CCC(=O)N2CCC(C(=O)NCCc3c(C)noc3C)CC2)c1C`, the RP-LC retention time worked out at 695 s. Then `COC(=O)c1c(C)[nH]c(C(=O)N2CCCC(C(=O)N3CCCCCC3)C2)c1C` (stereo not given), with 723 s; and `CCCNC(=O)c1nc(C)n(C2CCN(S(C)(=O)=O)CC2)c1C`, with 542 s. Then `O=C(CSCc1ccccc1)Nc1ccccc1Cl`, with 978 s; and `O=C(Cn1ccc2ccc(N3CCCCCC3)nc21)N1CCC(N2CCCCC2)CC1`, with 709 s; and `CC(NC(=O)c1ccco1)c1nc2ccccc2n1CC(=O)N(C)c1ccccc1` (stereo not given), with 694 s. For `CC(C)c1nc(N2CCCC2=O)sc1C(=O)NCc1ccc(F)cc1` the value was 970 s. On to `CCOC(=O)c1cnc(N2CCc3ccccc32)[nH]c1=O`, for which the RP-LC retention time was determined as 632 s.

The compound `CCCS(=O)(=O)c1nc2ccc(NS(=O)(=O)c3cccc4nsnc34)cc2s1` showed an RP-LC retention time of 878 s. Then `COc1ccc(-c2ccc3ncc4c(c3c2)n(-c2ccc(N3CCNCC3)c(C(F)(F)F)c2)c(=O)n4C)cn1`, with 630 s. For `O=C(C1CCCCC1)N1CCN(CC(F)(F)F)CC1` the value was 796 s; for `O=C(NCc1ccc(F)cc1)N1CCN(c2nc3ccccc3nc2C(F)(F)F)CC1`, 1010 s.

`Cn1ccc2cc(S(=O)(=O)N3CCCC(C(=O)NC4CCN(Cc5ccccc5)CC4)C3)ccc21` (stereo not given) returned an RP-LC retention time of 685 s. For `CCc1cc(C(=O)Nc2ccc(N3CCOCC3)cc2)nc2cc(-c3ccco3)nn12` the value was 683 s; for `COc1ccc(C2(C(=O)N3CCN(S(=O)(=O)c4c(C)nn(C)c4C)CC3)CC2)cc1`, 754 s; for `CCOC(=O)Cc1ccc(NC(=O)Nc2cccn3c(C)nnc23)cc1`, 723 s. `CCn1cc(C(=O)Nc2cccc(OC)c2)c2cccnc21` gave an RP-LC retention time of 809 s.

For the origin of these results see the METLIN SMRT retention time set (Domingo-Almenara et al. 2019).
